These results are taken from patent publication US10919887B2, “Salts and solid forms of a monobactam antibiotic” (Novartis AG, priority 2015, dated 2021).

The nature of the data set: Stability of solid forms as relative humidity is varied. It is filed as physicochemical. As to the method: This material is referred to herein as Form 5.
Water (20 mL) and THF (40 mL) were mixed in a flask, and Compound X (10 g, ca. 91% pure by HPLC) was added with stirring at 25° C. to provide a clear yellow solution. A 20 mg sample of Form 5 (see above) was added as a seed, and the mixture was stirred for 50 mins. THF (140 mL) was then added slowly, over 1 hr and the mixture was stirred for 2 hr more. The suspension was filtered, and the wet cake was washed with cold (<5° C.) water, then dried at 20-25° C. for 11 hrs at 100 mbar pressure, providing 6.6 g of Form 5 trihydrate that was 97.8% pure by HPLC. It appears stable when stored at 25-50% relative humidity, preferably 30-40% RH; at lower or higher relative humidity, it may evolve to different hydrated states as described herein.
Compound X of Form 1 (anhydrate) was exposed to 43% relative humidity for one day or more. The crystalline product appears to be a sesquihydrate (Compound X-1.5 H2O) based on water content determination. Note that Form 5, the trihydrate, under similar conditions would be stable, yet when starting with the anhydrate, it appears to equilibrate as a sequihdyrate under these conditions and remains in that form for at least 14 days when kept at the same relative humidity. This crystalline form produces the XRPD spectrum shown in FIG. 11, and is referred to herein as Form 10. The table below summarizes the main peaks in the XRPD of this sample.
Compound X of Form 5, the trihydrate, was exposed to relative humidity of 22% for about 3 days to provide a crystalline solid characterized as a dihydrate (Compound X-2H2O) based on water content analysis. […] The dihydrate, referred to herein as Form 11, produced the XRPD spectrum shown in FIG. 12: the main peaks in that XRPD spectrum are listed in the following table.
Compound X of Form 5 was exposed to air with a relative humidity of 65% for about 3 days, providing a crystalline material characterized as a tetra-hydrate based on water content analysis. […] The tetrahydrate, referred to herein as Form 12, produced the XRPD spectrum shown in FIG. 13: the main peaks in that XRPD spectrum are listed in the following table.
Note that at 92% relative humidity, Compound X appears to be a mixture of a crystal form characterized as hexahydrate mixed with the tetrahydrate of Form 12. By comparison, the anhydrate (Form 1) preferentially converts to a sesquihydrate as the relative humidity is increased to 43%, and evolves to trihydrate and tetrahydrate at higher relative humidities.

Turning to `Nc1nc(/C(=N/OC2(C(=O)O)CC2)C(=O)N[C@@H]2C(=O)N(S(=O)(=O)O)[C@@H]2CN2CCOC2=O)cs1` [Form 5], the “form change at high relative humidity” value (RH above 80%) was “converts to Form 4 within a day”. Besides, the “relative humidity at which the form appears stable when stored” value (storage of Form 5 trihydrate) is recorded as 25-50%.

Turning to `Nc1nc(/C(=N/OC2(C(=O)O)CC2)C(=O)N[C@@H]2C(=O)N(S(=O)(=O)O)[C@@H]2CN2CCOC2=O)cs1` [Form 12], under “relative humidity reduced to about 40%”, the “form change when relative humidity is reduced” value was “readily reverts to the trihydrate (Form 5)”.

Consider `Nc1nc(/C(=N/OC2(C(=O)O)CC2)C(=O)N[C@@H]2C(=O)N(S(=O)(=O)O)[C@@H]2CN2CCOC2=O)cs1` [Form 10], for which the “time the form remains unchanged” value (kept at 43% relative humidity) was “at least 14 days”.
